Test results as given in ChEMBL document CHEMBL2401638, “Design and synthesis of biquinolone-isoniazid hybrids as a new class of antitubercular and antimicrobial agents” (Eur J Med Chem, 2013).
Converted amounts (≈) assume the structure as drawn.

Legend:
[1] = Cytotoxicity in Artemia cysts assessed as mortality of nauplii at 20 ug/mL after 24 hrs relative to control; type: organism-based; conditions: in vivo
Bacillus subtilis = assay: Antibacterial activity against Bacillus subtilis MTCC 441 assessed as growth inhibition by broth microdilution method; type: functional
[2] = tested on: Mycobacterium tuberculosis; assay: Antituberculosis activity against Mycobacterium tuberculosis H37Rv assessed as growth inhibition at 250 ug/ml after 12 to 28 days by Lowenstein-Jensen method relative to control; type: functional; conditions: read-out: GI
Staphylococcus aureus = assay: Antibacterial activity against Staphylococcus aureus MTCC 96 assessed as growth inhibition by broth microdilution method; type: functional
[3] = Cytotoxicity in Artemia cysts assessed as mortality of nauplii at 5 ug/mL after 24 hrs relative to control; type: organism-based; conditions: in vivo
Pseudomonas aeruginosa = assay: Antibacterial activity against Pseudomonas aeruginosa MTCC 1688 assessed as growth inhibition by broth microdilution method; type: functional
[4] = Cytotoxicity in Artemia cysts assessed as mortality of nauplii after 24 hrs; type: organism-based; conditions: in vivo
[5] = tested on: Mycobacterium tuberculosis; assay: Antituberculosis activity against Mycobacterium tuberculosis H37Rv assessed as growth inhibition after 12 to 28 days by Lowenstein-Jensen method; type: functional
[6] = Cytotoxicity in Artemia cysts assessed as mortality of nauplii at 10 ug/mL after 24 hrs relative to control; type: organism-based; conditions: in vivo
Candida albicans = assay: Antifungal activity against Candida albicans MTCC 227 assessed as growth inhibition by broth microdilution method; type: functional
Trichophyton rubrum = assay: Antifungal activity against Trichophyton rubrum MTCC 296 assessed as growth inhibition by broth microdilution method; type: functional
[7] = Cytotoxicity in Artemia cysts assessed as mortality of nauplii at 40 ug/mL after 24 hrs relative to control; type: organism-based; conditions: in vivo
[8] = Cytotoxicity in Artemia cysts assessed as mortality of nauplii at 30 ug/mL after 24 hrs relative to control; type: organism-based; conditions: in vivo
Escherichia coli = assay: Antibacterial activity against Escherichia coli MTCC 443 assessed as growth inhibition by broth microdilution method; type: functional
[9] = Cytotoxicity in Artemia cysts assessed as mortality of nauplii at 50 ug/mL after 24 hrs relative to control; type: organism-based; conditions: in vivo
Salmonella typhi = assay: Antibacterial activity against Salmonella typhi MTCC 98 assessed as growth inhibition by broth microdilution method; type: functional, Salmonella enterica subsp. enterica serovar Typhi; conditions: Salmonella enterica
Clostridium tetani = assay: Antibacterial activity against Clostridium tetani MTCC 449 assessed as growth inhibition by broth microdilution method; type: functional

With C=CCn1c(=O)c(C2C(C(=O)OCC)=C(N)N(NC(=O)c3ccncc3)C3=C2C(=O)CC(C)(C)C3)cc2cc(OC)ccc21 (stereo not given) the mortality at 24 h, 20 ug/mL [1] was 30%, the MIC (Bacillus subtilis) was 125 µg/mL and the inhibition of growth at 250 µg/mL [2] was 96%. The MIC (Staphylococcus aureus) was 200 µg/mL, the mortality at 24 h, 5 ug/mL [3] was 10% and the MIC (Pseudomonas aeruginosa) was 125 µg/mL. For the same compound, the LC50 at 24 h [4] was 26.6 µg/mL (≈ 44.5 µM), the MIC [5] was 100 µg/mL (≈ 167 µM) and the mortality at 24 h, 10 ug/mL [6] was 20%. The MIC (Candida albicans) was 500 µg/mL, the MIC (Trichophyton rubrum) was 1000 µg/mL and the mortality at 24 h, 40 ug/mL [7] was 60%. For the same compound, the mortality at 24 h, 30 ug/mL [8] was 50%, the MIC (Escherichia coli) was 250 µg/mL and the mortality at 24 h, 50 ug/mL [9] was 80%. The MIC (Salmonella typhi) was 125 µg/mL and the MIC (Clostridium tetani) was 250 µg/mL.
Work on C=CCn1c(=O)c(C2C(C(=O)OC)=C(N)N(NC(=O)c3ccncc3)C3=C2C(=O)CC(C)(C)C3)cc2cc(C)ccc21 (stereo not given) yielded a mortality at 24 h, 20 ug/mL [1] of 20%, an MIC (Bacillus subtilis) of 200 µg/mL and an inhibition of growth at 250 µg/mL [2] of 99%. It also gave an MIC (Staphylococcus aureus) of 500 µg/mL, a mortality at 24 h, 5 ug/mL [3] of 0% and an MIC (Pseudomonas aeruginosa) of 250 µg/mL. For the same compound, the LC50 at 24 h [4] was 34.6 µg/mL (≈ 60.9 µM), the MIC [5] was 25 µg/mL (≈ 44 µM) and the mortality at 24 h, 10 ug/mL [6] was 10%. For the same compound, the MIC (Candida albicans) was 500 µg/mL, the MIC (Trichophyton rubrum) was > 1000 µg/mL and the mortality at 24 h, 40 ug/mL [7] was 60%. The mortality at 24 h, 30 ug/mL [8] was 40%, the MIC (Escherichia coli) was 125 µg/mL and the mortality at 24 h, 50 ug/mL [9] was 70%. For the same compound, the MIC (Salmonella typhi) was 100 µg/mL and the MIC (Clostridium tetani) was 500 µg/mL.
C=CCn1c(=O)c(C2C(C(=O)OC)=C(N)N(NC(=O)c3ccncc3)C3=C2C(=O)CCC3)cc2cc(OC)ccc21 (stereo not given) showed a mortality at 24 h, 20 ug/mL [1] of 40%, an MIC (Bacillus subtilis) of 50 µg/mL and an inhibition of growth at 250 µg/mL [2] of 98%. It also gave an MIC (Staphylococcus aureus) of 200 µg/mL, a mortality at 24 h, 5 ug/mL [3] of 10% and an MIC (Pseudomonas aeruginosa) of 125 µg/mL. For the same compound, the LC50 at 24 h [4] was 19.7 µg/mL (≈ 35.4 µM), the MIC [5] was 50 µg/mL (≈ 90 µM) and the mortality at 24 h, 10 ug/mL [6] was 20%. The MIC (Candida albicans) was 1000 µg/mL, the MIC (Trichophyton rubrum) was > 1000 µg/mL and the mortality at 24 h, 40 ug/mL [7] was 80%. For the same compound, the mortality at 24 h, 30 ug/mL [8] was 60%, the MIC (Escherichia coli) was 100 µg/mL and the mortality at 24 h, 50 ug/mL [9] was 90%. The MIC (Salmonella typhi) was 125 µg/mL and the MIC (Clostridium tetani) was 125 µg/mL.
Work on C=CCn1c(=O)c(C2C(C(=O)OC(C)C)=C(N)N(NC(=O)c3ccncc3)C3=C2C(=O)CC(C)(C)C3)cc2cc(C)ccc21 (stereo not given) yielded a mortality at 24 h, 20 ug/mL [1] of 30%, an MIC (Bacillus subtilis) of 500 µg/mL and an inhibition of growth at 250 µg/mL [2] of 99%. It also gave an MIC (Staphylococcus aureus) of 500 µg/mL, a mortality at 24 h, 5 ug/mL [3] of 0% and an MIC (Pseudomonas aeruginosa) of 200 µg/mL. It also gave an LC50 at 24 h [4] of 35.4 µg/mL (≈ 59.4 µM), an MIC [5] of 12.5 µg/mL (≈ 21 µM) and a mortality at 24 h, 10 ug/mL [6] of 10%. It also gave an MIC (Candida albicans) of 500 µg/mL, an MIC (Trichophyton rubrum) of 1000 µg/mL and a mortality at 24 h, 40 ug/mL [7] of 50%. For the same compound, the mortality at 24 h, 30 ug/mL [8] was 40%, the MIC (Escherichia coli) was 125 µg/mL and the mortality at 24 h, 50 ug/mL [9] was 70%. For the same compound, the MIC (Salmonella typhi) was 200 µg/mL and the MIC (Clostridium tetani) was 500 µg/mL.
C=CCn1c(=O)c(C2C(C(=O)OCC)=C(N)N(NC(=O)c3ccncc3)C3=C2C(=O)CC(C)(C)C3)cc2cc(C)ccc21 (stereo not given) gave a mortality at 24 h, 20 ug/mL [1] of 30%, an MIC (Bacillus subtilis) of 500 µg/mL and an inhibition of growth at 250 µg/mL [2] of 94%. The MIC (Staphylococcus aureus) was 125 µg/mL, the mortality at 24 h, 5 ug/mL [3] was 0% and the MIC (Pseudomonas aeruginosa) was 500 µg/mL. It also gave an LC50 at 24 h [4] of 28.6 µg/mL (≈ 49.1 µM), an MIC [5] of 62.5 µg/mL (≈ 107 µM) and a mortality at 24 h, 10 ug/mL [6] of 20%. For the same compound, the MIC (Candida albicans) was 500 µg/mL, the MIC (Trichophyton rubrum) was 1000 µg/mL and the mortality at 24 h, 40 ug/mL [7] was 60%. For the same compound, the mortality at 24 h, 30 ug/mL [8] was 40%, the MIC (Escherichia coli) was 62.5 µg/mL and the mortality at 24 h, 50 ug/mL [9] was 80%. The MIC (Salmonella typhi) was 125 µg/mL and the MIC (Clostridium tetani) was 125 µg/mL.
